Results: the NIST ThermoML archive (doi:10.1021/je0600810)

How the values were obtained:
[1] = 101.33 kPa, Liquid; for viscosity: Capillary tube (Ostwald / Ubbelohde) method
[2] = φn = volume fraction of the nth substance listed; conditions: 101 kPa, Liquid

CO [methanol]
[1]
Conditions	mass density [kg/m3]	viscosity [mPa·s]
298.15 K	786.59	0.5446
308.15 K	777.28	0.4747
318.15 K	767.74	0.4185

CO [methanol] + O
[2]
Conditions	mass density, 298.15 K [kg/m3]	mass density, 308.15 K [kg/m3]	mass density, 318.15 K [kg/m3]	viscosity, 298.15 K [mPa·s]	viscosity, 308.15 K [mPa·s]	viscosity, 318.15 K [mPa·s]
φ1 = 0.01	982.97	979.73	976.04	1.084	0.8665	0.702
φ1 = 0.2	969.63	966.32	961.62	1.311	1.022	0.8075
φ1 = 0.3	956.2	951.6	946.26	1.471	1.142	0.8957
